Laboratory results taken from publication PMC6934184, “Selective DNA-PKcs inhibition extends the therapeutic index of localized radiotherapy and chemotherapy” (The Journal of Clinical Investigation, 2019).

Biological target: T1, PDGFRA D842V (Homo sapiens, UniProt P16234, D842V)
T1 construct: purchased Thermo Fisher Scientific (Life Technologies) SelectScreen
Experiment: SelectScreen Z'LYTE
Type: biochemical
In short: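 SelectScreen broad panel; activity (Z'LYTE, Adapta) plus binding formats. ATP: Km app for CSF1R Z'LYTE; 10 for CAMK1 Adapta. Readout = % per kinase.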

T1 sequence (P16234 24-1089 D842V): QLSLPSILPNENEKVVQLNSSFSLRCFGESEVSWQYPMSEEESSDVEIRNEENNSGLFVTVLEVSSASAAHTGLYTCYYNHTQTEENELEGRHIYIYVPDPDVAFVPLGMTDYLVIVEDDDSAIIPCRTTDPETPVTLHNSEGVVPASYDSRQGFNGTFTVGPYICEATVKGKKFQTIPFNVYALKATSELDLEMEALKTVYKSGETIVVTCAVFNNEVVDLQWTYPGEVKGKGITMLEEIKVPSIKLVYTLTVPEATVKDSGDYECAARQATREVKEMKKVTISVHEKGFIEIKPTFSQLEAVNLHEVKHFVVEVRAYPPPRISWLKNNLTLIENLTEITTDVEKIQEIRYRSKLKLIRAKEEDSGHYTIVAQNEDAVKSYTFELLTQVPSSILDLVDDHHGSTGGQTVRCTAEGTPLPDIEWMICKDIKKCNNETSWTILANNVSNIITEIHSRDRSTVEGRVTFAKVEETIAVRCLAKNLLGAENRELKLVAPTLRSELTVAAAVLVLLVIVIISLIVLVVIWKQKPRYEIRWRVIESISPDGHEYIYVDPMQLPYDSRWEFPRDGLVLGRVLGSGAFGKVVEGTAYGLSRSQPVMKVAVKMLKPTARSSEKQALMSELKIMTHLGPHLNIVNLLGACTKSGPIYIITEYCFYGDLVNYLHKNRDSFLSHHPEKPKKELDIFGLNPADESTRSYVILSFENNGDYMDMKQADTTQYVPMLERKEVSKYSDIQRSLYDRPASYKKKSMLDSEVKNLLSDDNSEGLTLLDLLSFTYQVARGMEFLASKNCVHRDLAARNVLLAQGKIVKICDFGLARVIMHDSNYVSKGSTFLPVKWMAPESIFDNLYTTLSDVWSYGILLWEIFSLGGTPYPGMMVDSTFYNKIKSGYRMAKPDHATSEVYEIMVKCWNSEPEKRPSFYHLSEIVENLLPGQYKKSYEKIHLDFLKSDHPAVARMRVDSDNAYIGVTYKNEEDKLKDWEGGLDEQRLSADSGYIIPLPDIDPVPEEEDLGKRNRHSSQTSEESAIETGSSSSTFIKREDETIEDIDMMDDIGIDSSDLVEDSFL

CN(C(=O)CN1CCOCC1)c1ccc2sc3c(-c4cccc5c(=O)cc(N6CC7CCC(C6)O7)oc45)cccc3c2c1 [NU5455]
inhibition at 1 µM: -5%
